Measurements taken from ChEMBL document CHEMBL6182909 (J Med Chem, 2025).

Tests used:
[1] = target: T1, 5-hydroxytryptamine receptor 2A (Homo sapiens, UniProt P28223); test: Displacement of [125I]-DOI from 5-HT2A receptor (unknown origin) expressed in HEK293 cell membrane incubated for 1 hr by scintillation counter analysis; format: cell membranes
[2] = target: T2, 5-hydroxytryptamine receptor 2C (Homo sapiens, UniProt P28335)
T2 sequence (P28335 whole entry): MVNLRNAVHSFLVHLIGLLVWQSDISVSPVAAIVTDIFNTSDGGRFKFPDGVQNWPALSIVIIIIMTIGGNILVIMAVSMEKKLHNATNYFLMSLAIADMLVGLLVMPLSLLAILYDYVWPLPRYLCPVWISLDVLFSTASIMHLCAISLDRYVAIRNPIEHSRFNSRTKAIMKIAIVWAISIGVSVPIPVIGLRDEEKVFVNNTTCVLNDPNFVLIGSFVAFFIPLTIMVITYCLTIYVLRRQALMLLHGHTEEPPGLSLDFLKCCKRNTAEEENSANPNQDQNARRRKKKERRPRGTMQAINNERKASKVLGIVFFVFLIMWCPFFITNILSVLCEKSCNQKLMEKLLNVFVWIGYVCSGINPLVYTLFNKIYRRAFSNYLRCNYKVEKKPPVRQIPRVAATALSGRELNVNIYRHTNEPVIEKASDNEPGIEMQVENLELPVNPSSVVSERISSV

[3] = target: T3, 5-hydroxytryptamine receptor 2B (Homo sapiens, UniProt P41595); test: Displacement of [125I]-DOI from 5-HT2B receptor (unknown origin) expressed in HEK293 cell membrane incubated for 1 hr by scintillation counter analysis; format: cell membranes
[4] = target: T3, 5-hydroxytryptamine receptor 2B; test: Displacement of [125I]-DOI from 5-HT2B receptor (unknown origin) expressed in HEK293 cell membrane assessed as inhibition constant incubated for 1 hr by scintillation counter analysis; format: cell membranes
[5] = target: T2, 5-hydroxytryptamine receptor 2C; remark: listed apart in the source
[6] = target: T1, 5-hydroxytryptamine receptor 2A; test: Displacement of [125I]-DOI from 5-HT2A receptor (unknown origin) expressed in HEK293 cell membrane assessed as inhibition constant incubated for 1 hr by scintillation counter analysis; format: cell membranes

T1 sequence (P28223 whole entry): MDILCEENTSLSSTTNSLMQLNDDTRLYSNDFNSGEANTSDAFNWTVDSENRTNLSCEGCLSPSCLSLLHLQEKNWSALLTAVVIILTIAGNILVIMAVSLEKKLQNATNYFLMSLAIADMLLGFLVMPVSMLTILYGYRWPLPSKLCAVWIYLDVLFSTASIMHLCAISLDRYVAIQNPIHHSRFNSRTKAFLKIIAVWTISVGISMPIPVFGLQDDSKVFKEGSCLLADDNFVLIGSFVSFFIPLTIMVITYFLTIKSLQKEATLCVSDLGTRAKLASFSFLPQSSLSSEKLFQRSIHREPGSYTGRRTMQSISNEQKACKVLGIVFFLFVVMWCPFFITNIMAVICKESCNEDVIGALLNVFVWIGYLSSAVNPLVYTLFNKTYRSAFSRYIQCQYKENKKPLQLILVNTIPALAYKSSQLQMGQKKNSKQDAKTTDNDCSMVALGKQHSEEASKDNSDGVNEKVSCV
T3 sequence (P41595 whole entry): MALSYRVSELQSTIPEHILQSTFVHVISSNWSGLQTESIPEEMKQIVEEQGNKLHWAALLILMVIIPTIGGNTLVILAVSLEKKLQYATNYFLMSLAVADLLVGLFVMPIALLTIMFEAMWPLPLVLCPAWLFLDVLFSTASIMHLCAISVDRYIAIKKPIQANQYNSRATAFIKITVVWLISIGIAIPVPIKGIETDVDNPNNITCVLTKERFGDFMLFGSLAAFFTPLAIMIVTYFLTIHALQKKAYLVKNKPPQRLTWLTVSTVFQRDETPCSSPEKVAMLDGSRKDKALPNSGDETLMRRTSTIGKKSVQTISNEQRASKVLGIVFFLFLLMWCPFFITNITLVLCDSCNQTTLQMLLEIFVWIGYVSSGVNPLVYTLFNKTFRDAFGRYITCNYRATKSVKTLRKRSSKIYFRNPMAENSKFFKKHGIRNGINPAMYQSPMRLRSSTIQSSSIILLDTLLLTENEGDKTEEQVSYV

EC50 [1] [nM]	EC50 [2] [nM]	EC50 [3] [nM]	Ki [4] [nM]	Ki [5] [nM]	Ki [6] [nM]	Compound
> 50000	332	> 50000				COCCNC(=O)c1ccc2c3c1CCCN3CCNC2
	178		5150	91	7330	O=C(NCC(F)(F)F)c1ccc2c3c1C(CC(F)(F)F)CN3CCNC2 (racemic)
> 50000	2700	> 50000		500		NC(=O)c1ccc2c3c1CCN3CCNC2
	80		> 50000	121	212	CCC1CN2CCNCc3ccc(C(=O)NCCF)c1c32 (racemic)
> 50000	91	> 50000	11800	160	> 30000	CCCCNC(=O)c1ccc2c3c1CCN3CCNC2
	45		12400	72	1620	CCNC(=O)c1ccc2c3c1C(CC(F)(F)F)CN3CCNC2 (racemic)
> 50000	7400	> 50000	> 50000	3070	> 30000	COCC(C)NC(=O)c1ccc2c3c1CCN3CCNC2 (stereo not given)
> 50000	15	> 50000	2510	19	506	CCCOCCNC(=O)c1ccc2c3c1CCN3CCNC2
> 50000	360	> 50000	17800	320	17800	O=C(NCC1CC1)c1ccc2c3c1CCN3CCNC2
> 50000	400	> 50000				O=C(NCC(F)F)c1ccc2c3c1CCN3CCNC2
> 50000	400	> 50000	9650	380	21800	O=C(NC1CC1)c1ccc2c3c1CCN3CCNC2
> 50000	252	> 50000	8160	210	> 30000	CCNC(=O)c1ccc2c3c1CCN3CCNC2
> 50000	59	> 50000	> 50000	84	> 30000	CSCCNC(=O)c1ccc2c3c1CCN3CCNC2
> 50000	57	> 50000	> 50000	75	> 30000	CC(C)OCCNC(=O)c1ccc2c3c1CCN3CCNC2
	23		804	30	3780	CNC(=O)c1ccc2c3c1C(CC(F)F)CN3CCNC2 (racemic)
> 50000	33	> 50000	2490	61	18900	O=C(NCCCl)c1ccc2c3c1CCN3CCNC2
> 50000	430	> 50000	> 50000	249	> 30000	O=C(NCCF)c1ccc2c3c1CCN3CCNC2
> 50000	5600	> 50000				CNC(=O)c1ccc2c3c1CCCN3CCNC2
	14		> 50000	25	2680	O=C(NCC(F)F)c1ccc2c3c1C(CC(F)(F)F)CN3CCNC2 (racemic)
> 50000	> 50000	> 50000	> 50000	12600	> 30000	CS(=O)(=O)CCNC(=O)c1ccc2c3c1CCN3CCNC2
> 50000	15	> 50000	> 50000	29	17800	CCSCCNC(=O)c1ccc2c3c1CCN3CCNC2
> 50000	> 50000	> 50000				O=C(NCC(F)(F)F)c1ccc2c3c1CCN3CCNC2
> 50000	> 30000	> 50000				CN(C)C(=O)c1ccc2c3c1CCN3CCNC2
	17		> 50000	38	217	COCCNC(=O)c1ccc2c3c1C(CC(F)(F)F)CN3CCNC2 (racemic)
